# Tests used:
# [1] = Solubility in various solvents; type: physicochemical
# mouse = test: Acute toxicity in mouse; type: in vivo; conditions: ip., 200 mg/kg in DMSO/water, two groups of 3
# Experimental: The acute toxicity of cytophagin was determined by using mouse as test animals.
# [2] = test system: Pseudomonas aeruginosa A 3; test: Minimum growth inhibitory concentration, agar dilution method; type: cell-based; conditions: pH 7
# From the text: (§1) **Determined by agar dilution method using a bouilon medium (pH:7).
# [3] = test system: Bacillus subtilis PCI 219; test: as above; type: cell-based; conditions: pH 7
# From the text: as §1
# Escherichia coli K-12 = test: as above; type: cell-based; conditions: pH 7
# From the text: as §1
# [4] = test system: Micrococcus lysodeikticus IFO 3333; test: as above; type: cell-based; conditions: pH 7
# From the text: as §1
# [5] = test system: Staphylococcus aureus FDA 209P; test: as above; type: cell-based; conditions: bouillon medium pH 7
# From the text: as §1
# [6] = test system: Mycobacterium smegmatis ATCC 607; test: as above; type: cell-based; conditions: pH 7
# From the text: as §1
# Sarcina lutea PCI 1001 = test: as above; type: cell-based; conditions: pH 7
# From the text: as §1
# [7] = test system: Staphylococcus aureus MS 8800; test: as above; type: cell-based; conditions: Staphylococcus aureus MS 8800, resistant to penicillin, tetracyclin, streptomycin and erythromycin, pH 7
# From the text: as §1
# Candida albicans 3147 = test: as above; type: cell-based; conditions: pH 7
# From the text: as §1
# [8] = test system: Bacillus subtilis NRRL B-558; test: as above; type: cell-based; conditions: pH 7
# From the text: as §1
# [9] = test system: Staphylococcus sp M-XX-0105; test: as above; type: cell-based; conditions: Staphylococcus sp M-XX-0105, resistant to amikacin, tobramycin and DKB, pH 7
# From the text: as §1
# [10] = test system: various Gram-positive bacteria; test: Activity against the growth of Gram-positive bacteria (Table 1); type: cell-based; conditions: qualitative, from Table 1
# From the text: as §1
substance,measurement,setting,value
cytophagin,Solubility,[1]; acetic acid,Readily soluble
same,Solubility,[1]; acetone,hardly soluble
same,Solubility,[1]; chloroform,hardly soluble
same,Solubility,[1]; dimethylsulfoxide,Readily soluble
same,Solubility,[1]; ethanol,substantially soluble
same,Solubility,[1]; ethyl acetate,hardly soluble
same,Solubility,[1]; ethyl ether,hardly soluble
same,Solubility,[1]; methanol,substantially soluble
same,Solubility,[1]; water,hardly soluble
same,acute toxicity (survival),mouse,"All of them (two groups, each consisting of 3 mouse) survived"
same,MIC,[2],> 100 µg/mL
same,MIC,[3],1.56 µg/mL
same,MIC,Escherichia coli K-12,> 100 µg/mL
same,MIC,[4],0.1 µg/mL
same,MIC,[5],1.56 µg/mL
same,MIC,[6],> 100 µg/mL
same,MIC,Sarcina lutea PCI 1001,0.1 µg/mL
same,MIC,[7],1.56 µg/mL
same,MIC,Candida albicans 3147,50 µg/mL
same,MIC,[8],1.56 µg/mL
same,MIC,[9],2.5 µg/mL
same,activity against the growth of various Gram-positive bacteria,[10],strongly active
